Laboratory results from patent US20060223790A1, “Modulation of Microglial by Nicotinic Medications” (University of South Florida, priority 2004, published 2006).

What was measured:
[1] = system: APP transgenic mice; settings: cited from earlier work; for Aβ deposition: APP transgenic mice
[2] = system: primary cultured microglial cells; assay type: cell-based, mouse
[3] = system: primary cultured microglial cells; assay type: cell-based, mouse; remark: listed apart in the source
[4] = system: microglia; settings: cited from earlier work
[5] = system: p44/42 MAPK; assay type: cell-based, mouse

In the case of Oc1c(I)cc(Cl)c2cccnc12 [clioquinol], the Aβ deposition [1] is listed as “reduced”.
In the case of COc1cc(/C=C/C(=O)CC(=O)/C=C/c2ccc(O)c(OC)c2)ccc1O [curcumin], the Aβ deposition [1] is given as “reduced”.
For CC(C)Cc1ccc(C(C)C(=O)O)cc1 (stereo not shown) [ibuprofen], the Aβ deposition [1] is given as “reduced”.
For CN1CCCC1c1cccnc1 (stereo not shown) [nicotine], the “HIV-1 gp120/IFN-Υ-induced TNF-α production” value [2] is listed as “slight reduction”, the “HIV-1 gp120/IFN-Υ-induced NO release” value [3] is listed as “slight reduction” and the “LPS-induced TNF-α release” value [4] is listed as “inhibit”. For the same molecule, the “microglial activation induced by bacterial endotoxin (LPS)” value [4] was “reduced” and the “reduction in β-amyloid plaque” value ([1]; mouse, in vivo) was “comparable”.
With α-bungarotoxin the “effect on galantamine/nicotine inhibition of microglial NO release” value [3] was “significantly attenuates” and the “effect on galantamine/nicotine inhibition of phosphorylation of p44/42 MAPK” value [5] was “significantly attenuated”.
